Source: patent US12692251B2, “Pralsetinib pharmaceutical compositions” (Rigel Pharmaceuticals, Inc., priority 2020, dated 2026)

Key:
[1] = Solid form stability to humidity and drying; assay type: physicochemical; details: for stability to drying: 50° C. (under vacuum) where stated
Description: In one aspect, the present disclosure provides a process for preparing crystalline Form A, Form B or Form C. In a particular aspect, Form A can be obtained by slurrying in alcohols, acetone, and acetonitrile or Form A was prepared by evaporative crystallization in multiple solvents and cooling crystallization in isopropanol and 1-propanol. Form A can also be produced by recrystallization in acetone:water. Form C can be obtained by recrystallizing Compound (I) in various water containing solvent systems (acetone:water, methanol:water, isopropanol:water, dimethylacetamide:water, tetrahydrofuran:water). Form C was stable drying at 50° C. under vacuum, and converted to Form B (anhydrous) upon heating to 150° C. […] Form C was not as hygroscopic as Form A during the dynamic vapor sorption measurements, gaining only 1.44% water.

[2] = Competitive slurry experiments; assay type: physicochemical
[3] = Dynamic Vapor Sorption (DVS); assay type: physicochemical; details: for total mass change by DVS: between 2% and 95% relative humidity
Description: Dynamic Vapor Sorption (DVS) was done using a DVS Intrinsic 1. The sample is loaded into a sample pan and suspended from a microbalance. A typical sample mass for DVS measurement is 25 mg. Nitrogen gas bubbled through distilled water provides the desired relative humidity. A typical measurement comprises the steps: • 1—Equilibrate at 50% RH • 2—50% to 2%. (50%, 40%, 30%, 20%, 10% and 2%) • a. Hold minimum of 5 mins and maximum of 60 minutes at each humidity. The pass criteria is less than 0.002% change • 3 —2% to 95% (2%, 10%, 20%, 30%, 40%, 50%, 60%, 70%, 80%, 90%, 95%) • a. Hold minimum of 5 mins and maximum of 60 minutes at each humidity. The pass criteria is less than 0.002% change • 4—95% to 2% (95%, 80%, 70%, 60%, 50%, 40%, 30%, 20%, 10%, 2%) • a. Hold minimum of 5 mins and maximum of 60 minutes at each humidity. The pass criteria is less than 0.002% change • 5—2% to 50% (2%, 10%, 20%, 30%, 40%, 50%) • a. Hold minimum of 5 mins and maximum of 60 minutes at each humidity. The pass criteria is less than 0.002% change

[4] = Solubility of pralsetinib and its solid forms; assay type: physicochemical; details: for solubility in simulated gastric fluid: simulated gastric fluid (possibly due to conversion to HCl salt)
[5] = system: VEGFR2; details: in vivo; cited from earlier work
[6] = Accelerated stability for 4 weeks at 40° C./75% RH; assay type: physicochemical; details: Compositions 1-3
Description: The manufacturing process for the Compositions 1-3 are as follows: • 1) Intragranular components were blended in a suitably sized contained using the Turbula blender for 3 minutes at 23 rpm • 2) Intragranular blend was dry granulated by densification using a Riva minipress fitted with 22×9 mm caplet tooling • 3) Resultant material was milled using a Comil 193 fitted with 991 μm screen 4) Granule bulk density was determined and if not within 0.55-0.6 g/mL, densification and milling repeated until the desired bulk density was achieved • 5) Extragranular components were blend with the granules in a Turbula blender for 2 minutes at 23 rpm • 6) Final blend was hand filled in to Size 0 HPMC Capsules (Vcaps® Plus) • 7) Capsules were packed into 60 mL HDPE bottles with 4 g desiccant cap at a count of 30 capsules per bottle • 8) Packed product was placed on accelerated stability for 4 weeks at 40° C./75% RH

[7] = system: NSCLC and thyroid cancer xenografts driven by various RET mutations and fusions; details: in vivo; cited from earlier work

Structure (SMILES): CO[C@]1(C(=O)N[C@@H](C)c2ccc(-n3cc(F)cn3)nc2)CC[C@H](c2nc(C)cc(Nc3cc(C)[nH]n3)n2)CC1 [Form A, (cis)-N—((S)-1-(6-(4-fluoro-1H-pyrazol-1-yl)pyridin-3-yl)ethyl)-1-methoxy-4-(4 methyl-6-(5-methyl-1H-pyrazol-3-ylamino)pyrimidin-2-yl)cyclohexanecarboxamide]
- conversion on prolonged humidity exposure ([1]; prolonged humidity exposure): did not convert to Form C
- form conversion in competitive slurry, methanol:water ([2]; methanol:water at high ratios of water to methanol and lower temperatures): converted to Form C
- reversible mass change by DVS ([3]; between 2-95% relative humidity): about 10%
- solubility in simulated gastric fluid [4]: high solubility
- solubility in simulated intestinal fluid [4]: low solubility
- solubility in water [4]: low solubility

Structure (SMILES): CO[C@]1(C(=O)N[C@@H](C)c2ccc(-n3cc(F)cn3)nc2)CC[C@H](c2nc(C)cc(Nc3cc(C)[nH]n3)n2)CC1 [Form B, (cis)-N—((S)-1-(6-(4-fluoro-1H-pyrazol-1-yl)pyridin-3-yl)ethyl)-1-methoxy-4-(4 methyl-6-(5-methyl-1H-pyrazol-3-ylamino)pyrimidin-2-yl)cyclohexanecarboxamide]
- total mass change by DVS [3]: 1.4 wt. %

Structure (SMILES): CO[C@]1(C(=O)N[C@@H](C)c2ccc(-n3cc(F)cn3)nc2)CC[C@H](c2nc(C)cc(Nc3cc(C)[nH]n3)n2)CC1 [Form C, (cis)-N—((S)-1-(6-(4-fluoro-1H-pyrazol-1-yl)pyridin-3-yl)ethyl)-1-methoxy-4-(4 methyl-6-(5-methyl-1H-pyrazol-3-ylamino)pyrimidin-2-yl)cyclohexanecarboxamide]
- stability by X-ray powder diffraction during humidity testing ([1]; 75% relative humidity and 40° C. for one week, and cycling down to 2% relative humidity by DVS): remained stable
- form conversion in competitive slurry, acetone and isopropanol ([2]; acetone and isopropanol): converted to Form A
- water gained during dynamic vapor sorption measurements [3]: 1.44%
- total mass change by DVS [3]: 1.4 wt. %
- solubility in simulated gastric fluid [4]: high solubility
- solubility in simulated intestinal fluid [4]: lower solubility than Form A
- solubility in water [4]: lower solubility than Form A

Structure (SMILES): COC1(C(=O)NC(C)c2ccc(-n3cc(F)cn3)nc2)CCC(c2nc(C)cc(Nc3cc(C)[nH]n3)n2)CC1.Cl (centres unmarked) [Form III]
- behaviour at elevated humidity / humidification [1]: stable to humidification

Structure (SMILES): CO[C@]1(C(=O)N[C@@H](C)c2ccc(-n3cc(F)cn3)nc2)CC[C@H](c2nc(C)cc(Nc3cc(C)[nH]n3)n2)CC1.Cl [Form II]
- stability to drying [1]: converted to Form III

Structure (SMILES): COC1(C(=O)NC(C)c2ccc(-n3cc(F)cn3)nc2)CCC(c2nc(C)cc(Nc3cc(C)[nH]n3)n2)CC1.Cl (centres unmarked) [Form I]
- stability to drying [1]: stable to drying
- behaviour at elevated humidity / humidification [1]: deliquesced

Structure (SMILES): CO[C@]1(C(=O)N[C@@H](C)c2ccc(-n3cc(F)cn3)nc2)CC[C@H](c2nc(C)cc(Nc3cc(C)[nH]n3)n2)CC1 [pralsetinib, (cis)-N—((S)-1-(6-(4-fluoro-1H-pyrazol-1-yl)pyridin-3-yl)ethyl)-1-methoxy-4-(4 methyl-6-(5-methyl-1H-pyrazol-3-ylamino)pyrimidin-2-yl)cyclohexanecarboxamide]
- inhibition of VEGFR2 [5]: without inhibiting
- physical form by XRPD after storage [6]: remains as an amorphous solid dispersion
- growth of xenografts [7]: potently inhibits growth
- aqueous solubility [4]: low aqueous solubility
- solubility in acidic pH ([4]; acidic pH (pH 1.2 medium)): relatively high solubility
